In patent US9493487B2, “3-(1H-imidazo[4,5-C]pyridin-2-YL)-1H-pyrazolo[3,4-B]pyridine and therapeutic uses thereof” (Samumed, LLC, priority 2014, dated 2016):

System: Wnt activity (Sp5-Luc reporter, SW480 colon carcinoma cells)
Assay: Sp5-Luc Wnt reporter gene assay in SW480 colon carcinoma cells
Type: cell-based
Conditions: Homo sapiens; SW480 cells stably expressing Sp5-Luc reporter; 42 h incubation; BrightGlo luminescence normalized to DMSO
From the text: The screening assay for Wnt activity is described as follows. Reporter cell lines can be generated by stably transducing cancer cell lines (e.g., colon cancer) or primary cells (e.g., IEC-6 intestinal cells) with a lentiviral construct that includes a Wnt-responsive promoter driving expression of the firefly luciferase gene.
SW480 colon carcinoma cells were transduced with a lentiviral vector expressing luciferase with a human Sp5 promoter consisting of a sequence of eight TCF/LEF binding sites. SW480 cells stably expressing the Sp5-Luc reporter gene and a hygromycin resistance gene were selected by treatment with 150 μg/ml of hygromycin for 7 days. These stably transduced SW480 cells were expanded in cell culture and used for all further screening activities. For Sp5-Luc reporter gene assays, the cells were plated at 10,000 cells/well in 96-well plates with growth medium containing 10% fetal calf serum and incubated overnight at 37° C. and 5% CO2. Each compound was dissolved in DMSO as a 10 mM stock in standard j-vials and used to prepare compound source plates in dose-response format with 3-fold serial dilutions and a 10 mM top concentration. Compound transfer from serially diluted source plates to assay plates containing the cells was accomplished using a pintool (Multimek 96, Beckman equipped with V&P Scientific FP1S50H pins) based liquid handling protocol. This protocol used a slotted pin to transfer 50 nl of compound from a source plate well to an assay plate well containing 50 μl of cells in growth medium. […] Control wells received 50 nl of DMSO treatment for normalization and calculating IC50 values. The treated cells were incubated at 37° C. and 5% CO2 for an additional forty-two hours. Following incubation, the growth medium was removed and 50 μl of BrightGlo luminescence reagent (Promega) was added to each well of the 96-well assay plates. The plates were placed on an orbital shaker for 5 min and then luminescence was quantified on the Victor3 (Perkin Elmer) plate reader. Readings were normalized to DMSO only treated cells, and normalized activities were utilized for IC50 calculations using the dose-response log (inhibitor) vs. response-variable slope (four parameters) nonlinear regression feature available in GraphPad Prism 5.0 or 6.0.

SMILES | IC50 [nM]
Fc1cccc(-c2nccc3[nH]c(-c4n[nH]c5ncc(-c6cncc(CN7CCC(F)(F)C7)c6)cc45)nc23)c1 [Compound 25, 5-(5-((3,3-Difluoropyrrolidin-1-yl)methyl)pyridin-3-yl)-3-(4-(3-fluorophenyl)-1H-imidazo[4,5-c]pyridin-2-yl)-1H-pyrazolo[3,4-b]pyridine] | 33.9
Fc1ccc(-c2nccc3[nH]c(-c4n[nH]c5ncc(-c6cncnc6)cc45)nc23)cc1 [Compound 52, 3-(4-(4-Fluorophenyl)-1H-imidazo[4,5-c]pyridin-2-yl)-5-(pyrimidin-5-yl)-1H-pyrazolo[3,4-b]pyridine] | 155
c1cncc(-c2cnc3[nH]nc(-c4nc5c(-c6cccnc6)nccc5[nH]4)c3c2)c1 [Compound 82, 5-(Pyridin-3-yl)-3-(4-(pyridin-3-yl)-1H-imidazo[4,5-c]pyridin-2-yl)-1H-pyrazolo[3,4-b]pyridine] | 41.9
c1cncc(-c2nccc3[nH]c(-c4n[nH]c5ncc(-c6cncc(CN7CCCCC7)c6)cc45)nc23)c1 [Compound 93, 5-(5-(Piperidin-1-ylmethyl)pyridin-3-yl)-3-(4-(pyridin-3-yl)-1H-imidazo[4,5-c]pyridin-2-yl)-1H-pyrazolo[3,4-b]pyridine] | 3880
O=C(Nc1cncc(-c2cnc3[nH]nc(-c4nc5c(-c6ccncc6)nccc5[nH]4)c3c2)c1)C1CCCCC1 [Compound 126, N-(5-(3-(4-(Pyridin-4-yl)-1H-imidazo[4,5-c]pyridin-2-yl)-1H-pyrazolo[3,4-b]pyridin-5-yl)pyridin-3-yl)cyclohexanecarboxamide] | 1120
Cc1cn(-c2nccc3[nH]c(-c4n[nH]c5ncc(-c6cncc(NC(=O)C(C)(C)C)c6)cc45)nc23)cn1 [Compound 190, N-(5-(3-(4-(4-Methyl-1H-imidazol-1-yl)-1H-imidazo[4,5-c]pyridin-2-yl)-1H-pyrazolo[3,4-b]pyridin-5-yl)pyridin-3-yl)pivalamide] | 1580
CC(C)C(=O)Nc1cncc(-c2cnc3[nH]nc(-c4nc5c(N6CCN(C)CC6)nccc5[nH]4)c3c2)c1 [Compound 217, N-(5-(3-(4-(4-Methylpiperazin-1-yl)-1H-imidazo[4,5-c]pyridin-2-yl)-1H-pyrazolo[3,4-b]pyridin-5-yl)pyridin-3-yl)isobutyramide] | 673
CN1CCN(c2nccc3[nH]c(-c4n[nH]c5ncc(-c6cncc(NC(=O)C7CCCC7)c6)cc45)nc23)CC1 [Compound 229, N-(5-(3-(4-(4-Methylpiperazin-1-yl)-1H-imidazo[4,5-c]pyridin-2-yl)-1H-pyrazolo[3,4-b]pyridin-5-yl)pyridin-3-yl)cyclopentanecarboxamide] | 1550
CN1CCN(c2nccc3[nH]c(-c4n[nH]c5ncc(-c6cncnc6)cc45)nc23)CC1 [Compound 234, 3-(4-(4-Methylpiperazin-1-yl)-1H-imidazo[4,5-c]pyridin-2-yl)-5-(pyrimidin-5-yl)-1H-pyrazolo[3,4-b]pyridine] | 179
CCNCc1cncc(-c2cnc3[nH]nc(-c4nc5c(-c6ccoc6)nccc5[nH]4)c3c2)c1 [Compound 266, N-((5-(3-(4-(Furan-3-yl)-1H-imidazo[4,5-c]pyridin-2-yl)-1H-pyrazolo[3,4-b]pyridin-5-yl)pyridin-3-yl)methyl)ethanamine] | 339
CCCCC(=O)Nc1cncc(-c2cnc3[nH]nc(-c4nc5c(-c6ccoc6)nccc5[nH]4)c3c2)c1 [Compound 278, N-(5-(3-(4-(Furan-3-yl)-1H-imidazo[4,5-c]pyridin-2-yl)-1H-pyrazolo[3,4-b]pyridin-5-yl)pyridin-3-yl)pentanamide] | 56
CCCC(=O)Nc1cncc(-c2cnc3[nH]nc(-c4nc5c(-c6cc(F)cc(CNS(C)(=O)=O)c6)nccc5[nH]4)c3c2)c1 [Compound 407, N-(5-(3-(4-(3-Fluoro-5-(methylsulfonamidomethyl)phenyl)-1H-imidazo[4,5-c]pyridin-2-yl)-1H-pyrazolo[3,4-b]pyridin-5-yl)pyridin-3-yl)butyramide] | 74.1
CS(=O)(=O)NCc1cc(F)cc(-c2nccc3[nH]c(-c4n[nH]c5ncc(-c6cncc(CNCc7ccccc7)c6)cc45)nc23)c1 [Compound 413, N-(3-(2-(5-(5-((Benzylamino)methyl)pyridin-3-yl)-1H-pyrazolo[3,4-b]pyridin-3-yl)-1H-imidazo[4,5-c]pyridin-4-yl)-5-fluorobenzyl)methanesulfonamide] | 143
Fc1cccc(-c2nccc3[nH]c(-c4n[nH]c5ncc(C6=CCNCC6)cc45)nc23)c1 [Compound 886, 3-(4-(3-Fluorophenyl)-1H-imidazo[4,5-c]pyridin-2-yl)-5-(1,2,3,6-tetrahydropyridin-4-yl)-1H-pyrazolo[3,4-b]pyridine] | 3700
Fc1cccc(-c2nccc3[nH]c(-c4n[nH]c5ncc(-c6cncc(OC7CCCCC7)c6)cc45)nc23)c1 [Compound 891, 5-(5-(Cyclohexyloxy)pyridin-3-yl)-3-(4-(3-fluorophenyl)-1H-imidazo[4,5-c]pyridin-2-yl)-1H-pyrazolo[3,4-b]pyridine] | 935
Fc1cccc(-c2nccc3[nH]c(-c4n[nH]c5ncc(-c6cncc(OCCN7CCCC7)c6)cc45)nc23)c1 [Compound 894, 3-(4-(3-Fluorophenyl)-1H-imidazo[4,5-c]pyridin-2-yl)-5-(5-(2-(pyrrolidin-1-yl)ethoxy)pyridin-3-yl)-1H-pyrazolo[3,4-b]pyridine] | 1500
Oc1cncc(-c2cnc3[nH]nc(-c4nc5c(-c6cccc(F)c6)nccc5[nH]4)c3c2)c1 [Compound 897, 5-(3-(4-(3-Fluorophenyl)-1H-imidazo[4,5-c]pyridin-2-yl)-1H-pyrazolo[3,4-b]pyridin-5-yl)pyridin-3-ol] | 23
Fc1cccc(-c2nccc3[nH]c(-c4n[nH]c5ncc(-c6cncc(OCc7ccccc7)c6)cc45)nc23)c1 [Compound 898, 5-(5-(Benzyloxy)pyridin-3-yl)-3-(4-(3-fluorophenyl)-1H-imidazo[4,5-c]pyridin-2-yl)-1H-pyrazolo[3,4-b]pyridine] | 3260
O=C(CC1CCCCC1)Nc1cncc(-c2cnc3[nH]nc(-c4nc5c(-c6cccc(F)c6)nccc5[nH]4)c3c2)c1 [Compound 899, 2-Cyclohexyl-N-(5-(3-(4-(3-fluorophenyl)-1H-imidazo[4,5-c]pyridin-2-yl)-1H-pyrazolo[3,4-b]pyridin-5-yl)pyridin-3-yl)acetamide] | 1970
Fc1cccc(-c2nccc3[nH]c(-c4n[nH]c5ncc(-c6ccccn6)cc45)nc23)c1 [Compound 901, 3-(4-(3-Fluorophenyl)-1H-imidazo[4,5-c]pyridin-2-yl)-5-(pyridin-2-yl)-1H-pyrazolo[3,4-b]pyridine] | > 10000
CC(C)CC(=O)Nc1cncc(-c2cnc3[nH]nc(-c4nc5c(-c6cc(F)cc(OCCN(C)C)c6)nccc5[nH]4)c3c2)c1 [Compound 1192, N-(5-(3-(4-(3-(2-(Dimethylamino)ethoxy)-5-fluorophenyl)-1H-imidazo[4,5-c]pyridin-2-yl)-1H-pyrazolo[3,4-b]pyridin-5-yl)pyridin-3-yl)-3-methylbutanamide] | 400
CC(C)CC(=O)Nc1cncc(-c2cnc3[nH]nc(-c4nc5c(-c6cc(F)cc(OCCN7CCCC7)c6)nccc5[nH]4)c3c2)c1 [Compound 1236, N-(5-(3-(4-(3-Fluoro-5-(2-(pyrrolidin-1-yl)ethoxy)phenyl)-1H-imidazo[4,5-c]pyridin-2-yl)-1H-pyrazolo[3,4-b]pyridin-5-yl)pyridin-3-yl)-3-methylbutanamide] | 445
CC(C)CC(=O)Nc1cncc(-c2cnc3[nH]nc(-c4nc5c(-c6cc(O)cc(F)c6)nccc5[nH]4)c3c2)c1 [Compound 1280, N-(5-(3-(4-(3-Fluoro-5-hydroxyphenyl)-1H-imidazo[4,5-c]pyridin-2-yl)-1H-pyrazolo[3,4-b]pyridin-5-yl)pyridin-3-yl)-3-methylbutanamide] | 90
COc1cc(F)cc(-c2nccc3[nH]c(-c4n[nH]c5ncc(-c6cncc(NC(=O)CC(C)C)c6)cc45)nc23)c1 [Compound 1324, N-(5-(3-(4-(3-Fluoro-5-methoxyphenyl)-1H-imidazo[4,5-c]pyridin-2-yl)-1H-pyrazolo[3,4-b]pyridin-5-yl)pyridin-3-yl)-3-methylbutanamide] | 85
